Source: ChEMBL document CHEMBL5120779, “Thiazolidinedione-Based Structure Modification of Celastrol Provides Thiazolidinedione-Conjugated Derivatives as Potent Agents against Non-Small-Cell Lung Cancer Cells through a Mitochondria-Mediated Apoptotic Pathway” (J Nat Prod, 2022)
Active and inactive are the calls of the source. The rule behind the calls is not given here.

Key:
[1] = system: A549; test: Induction of apoptosis in human A549 cells assessed as viable cells at 0.5 uM incubated for 48 hrs by Annexin V-FITC/propidium iodide staining based flow cytometry (reference value: 95.7%); format: functional; settings: read-out: Activity
[2] = system: A549; test: Anti-tumor activity against human A549 cells xenografted in BALB/c mouse assessed as reduction in tumor weight at 8 mg/kg, iv administered every 2 days for 13 days; format: functional; settings: A549, 312 h, time 13 day
[3] = system: A549; test: Induction of apoptosis in human A549 cells assessed as increase in cleaved caspase-8 expression at 0.25 to 4 uM incubated for 48 hrs by western blot analysis; format: functional, cell-based; settings: dose 0.25-4 µM
[4] = system: A549; test: Induction of apoptosis in human A549 cells assessed as late apoptotic cells at 0.5 uM incubated for 48 hrs by Annexin V-FITC/propidium iodide staining based flow cytometry (reference value: 0.82%); format: functional
[5] = system: A549; test: Induction of apoptosis in human A549 cells assessed as increase in cleaved caspase-3 expression incubated for 48 hrs by western blot analysis; format: functional, cell-based; settings: dose 0.25-4 µM, DDE = dose-dependent effect
[6] = system: A549; test: Potency index, ratio of celastrol IC50 to test compound IC50 for cytotoxicity against human A549 cells by MTT assay; format: functional
[7] = system: A549; test: Induction of mitochondrial membrane potential depolarization in human A549 cells assessed as proportion of cells with intact mitochondria by measuring red fluorescent J-aggregates at 0.25 uM incubated for 48 hrs by JC-1 staining based flow cytometry (reference value: 63.9%); format: functional
[8] = system: A549; test: Induction of apoptosis in human A549 cells assessed as necrotic cells at 0.25 uM incubated for 48 hrs by Annexin V-FITC/propidium iodide staining based flow cytometry (reference value: 3.36%); format: functional
[9] = system: A549; test: Induction of apoptosis in human A549 cells assessed as late apoptotic cells at 0.25 uM incubated for 48 hrs by Annexin V-FITC/propidium iodide staining based flow cytometry (reference value: 0.82%); format: functional
[10] = Cytotoxicity against human MRC5 cells assessed as inhibition of cell growth measured after 96 hrs by MTT assay; format: toxicity, cell-based
[11] = system: A549; test: Induction of apoptosis in human A549 cells assessed as late apoptotic cells at 0.125 uM incubated for 48 hrs by Annexin V-FITC/propidium iodide staining based flow cytometry (reference value: 0.82%); format: functional
[12] = system: A549; test: Induction of mitochondrial membrane potential depolarization in human A549 cells assessed as proportion of cells with intact mitochondria by measuring red fluorescent J-aggregates at 0.5 uM incubated for 48 hrs by JC-1 staining based flow cytometry (reference value: 63.9%); format: functional
[13] = system: A549; test: Anti-tumor activity against human A549 cells xenografted in iv dosed BALB/c mouse assessed as reduction in tumor growth administered every 2 days for 13 days; format: functional, organism-based; settings: dose 2-8 mg/kg, time 13.0 day, DDE = dose-dependent effect
[14] = Stability of the compound in DMEM culture medium at 100 ug/ml measured after 72 hrs by HPLC analysis; format: physicochemical; settings: at 100 µg/mL
[15] = system: A549; test: Anti-tumor activity against human A549 cells xenografted in BALB/c mouse assessed as reduction in tumor weight at 4 mg/kg, iv administered every 2 days for 13 days; format: functional; settings: A549, 312 h, time 13 day
[16] = system: A549; test: Cytotoxicity against human A549 cells assessed as inhibition of cell proliferation at 0.1 uM pretreated for 2 hrs with autophagy inhibitor, 3-methyladenine followed by incubation with compound and measured after 48 hrs by MTT assay; format: functional, cell-based
[17] = system: A549; test: Induction of apoptosis in human A549 cells assessed as increase in Bax protein expression at 0.25 to 4 uM incubated for 48 hrs by western blot analysis; format: functional, cell-based; settings: dose 0.25-4 µM
[18] = system: A549; test: Cytotoxicity against human A549 cells assessed as inhibition of cell proliferation at 0.125 to 2 uM by MTT assay; format: functional, cell-based; settings: dose 0.125-2 µM, time 24-72 hrs, TDE = time-dependent effect
[19] = system: A549; test: Induction of mitochondrial membrane potential depolarization in human A549 cells assessed as proportion of cells with depolarized mitochondria by measuring green fluorescent J-monomers at 0.125 uM incubated for 48 hrs by JC-1 staining based flow cytometry (reference value: 34.2%); format: functional
[20] = system: A549; test: Induction of apoptosis in human A549 cells assessed as viable cells at 0.125 uM incubated for 48 hrs by Annexin V-FITC/propidium iodide staining based flow cytometry (reference value: 95.7%); format: functional; settings: read-out: Activity
[21] = system: A549; test: Cytotoxicity against human A549 cells assessed as inhibition of cell proliferation measured after 24 to 72 hrs by MTT assay; format: functional, cell-based; settings: dose 0.125-2 µM, time 24-72 hrs, DDE = dose-dependent effect
[22] = system: A549; test: Induction of apoptosis in human A549 cells assessed as decrease in Bcl-2 protein expression at 0.25 to 4 uM incubated for 48 hrs by western blot analysis; format: functional, cell-based; settings: dose 0.25-4 µM
[23] = system: A549; test: Induction of apoptosis in human A549 cells assessed as nuclear fragmentation and chromatin condensation incubated for 48 hrs by Hoechst 33342 staining based fluorescence microscopic analysis; format: functional, cell-based; settings: dose 0.25-0.5 µM, DDE = dose-dependent effect
[24] = system: A549; test: Induction of apoptosis in human A549 cells assessed as viable cells at 0.25 uM incubated for 48 hrs by Annexin V-FITC/propidium iodide staining based flow cytometry (reference value: 95.7%); format: functional; settings: read-out: Activity
[25] = system: A549; test: Induction of apoptosis in human A549 cells assessed as necrotic cells at 0.125 uM incubated for 48 hrs by Annexin V-FITC/propidium iodide staining based flow cytometry (reference value: 3.36%); format: functional
[26] = system: A549; test: Induction of apoptosis in human A549 cells assessed as increase in cleaved PARP expression incubated for 48 hrs by western blot analysis; format: functional, cell-based; settings: dose 0.25-4 µM, DDE = dose-dependent effect
[27] = Toxicity in BALB/c mouse xenografted with human A549 cells assessed as body weight loss at 2 to 8 mg/kg, iv administered every 2 days for 13 days; format: organism-based; settings: in vivo, 312 h, dose 2-8 mg/kg, time 13 day
[28] = system: A549; test: Cytotoxicity against human A549 cells assessed as inhibition of cell proliferation at 0.1 uM pretreated for 2 hrs with necroptosis inhibitor, necrostatin-1 followed by incubation with compound and measured after 48 hrs by MTT assay; format: functional, cell-based
[29] = system: A549; test: Induction of mitochondrial membrane potential depolarization in human A549 cells assessed as proportion of cells with depolarized mitochondria by measuring green fluorescent J-monomers at 0.5 uM incubated for 48 hrs by JC-1 staining based flow cytometry (reference value: 34.2%); format: functional
[30] = system: A549; test: Induction of mitochondrial membrane potential depolarization in human A549 cells assessed as proportion of cells with intact mitochondria by measuring red fluorescent J-aggregates at 0.125 uM incubated for 48 hrs by JC-1 staining based flow cytometry (reference value: 63.9%); format: functional
[31] = system: A549; test: cells; settings: Homo sapiens, A549, 96 h
Description: Cytotoxicity against human A549 cells assessed as inhibition of cell growth measured after 96 hrs by MTT assay

[32] = system: A549; test: Induction of apoptosis in human A549 cells assessed as early apoptotic cells at 0.5 uM incubated for 48 hrs by Annexin V-FITC/propidium iodide staining based flow cytometry (reference value: 0.11%); format: functional
[33] = system: A549; test: Induction of mitochondrial membrane potential depolarization in human A549 cells assessed as proportion of cells with depolarized mitochondria by measuring green fluorescent J-monomers at 0.25 uM incubated for 48 hrs by JC-1 staining based flow cytometry (reference value: 34.2%); format: functional
[34] = system: A549; test: Anti-tumor activity against human A549 cells xenografted in BALB/c mouse assessed as reduction in tumor volume at 2 to 8 mg/kg, iv administered every 2 days for 13 days; format: functional, organism-based; settings: dose 2-8 mg/kg, time 13.0 day
[35] = system: A549; test: Induction of apoptosis in human A549 cells assessed as increase in cleaved caspase-9 expression incubated for 48 hrs by western blot analysis; format: functional, cell-based; settings: dose 0.25-4 µM, DDE = dose-dependent effect
[36] = system: A549; test: Induction of apoptosis in human A549 cells assessed as early apoptotic cells at 0.125 uM incubated for 48 hrs by Annexin V-FITC/propidium iodide staining based flow cytometry (reference value: 0.11%); format: functional
[37] = system: A549; test: Induction of apoptosis in human A549 cells assessed as necrotic cells at 0.5 uM incubated for 48 hrs by Annexin V-FITC/propidium iodide staining based flow cytometry (reference value: 3.36%); format: functional
[38] = Selectivity index, ratio of IC50 for human MRC5 cells to IC50 for human A549 cells; format: toxicity; settings: MRC5 cells and A549 cells, read-out: Ratio IC50
[39] = system: A549; test: Induction of apoptosis in human A549 cells assessed as early apoptotic cells at 0.25 uM incubated for 48 hrs by Annexin V-FITC/propidium iodide staining based flow cytometry (reference value: 0.11%); format: functional
[40] = system: A549; test: Anti-tumor activity against human A549 cells xenografted in BALB/c mouse assessed as reduction in tumor weight at 2 mg/kg, iv administered every 2 days for 13 days; format: functional; settings: A549, 312 h, time 13 day

With `CC1=C(O)C(=O)C=C2C1=CC=C1[C@@]2(C)CC[C@@]2(C)[C@@H]3C[C@](C)(C(=O)N4CCN(C(=O)CN5C(=O)S/C(=C\C6CC6)C5=O)CC4)CC[C@]3(C)CC[C@]12C` the viability at 0.5 µM [1] was 59.8%, the inhibition in vivo at 8 mg/kg [2] was 69.5% and the Activity [3] was “Active”. For the same compound, the Activity [4] was 29.5%, the Activity [5] was “Dde” and the “Ratio IC50” value [6] was 13.8. The Activity [7] was 56%, the Activity [8] was 5.86% and the Activity [9] was 19.6%. It also gave an IC50 at 96 h [10] of 3020 nM, an Activity [11] of 7.71% and an Activity [12] of 51.7%. For the same compound, the Activity [13] was “Dde”, the Stability [14] was “Stable” and the inhibition in vivo at 4 mg/kg [15] was 64.4%. For the same compound, the Activity [16] was “Active”, the Activity [17] was “Active” and the Activity [18] was “Tde”. For the same compound, the Activity [19] was 38.2%, the viability at 0.125 µM [20] was 85.8% and the Activity [21] was “Dde”. The Activity [22] was “Active”, the Activity [23] was “Dde” and the viability at 0.25 µM [24] was 71.8%. For the same compound, the Activity [25] was 4.59%, the Activity [26] was “Dde” and the Activity [27] was “Non-Toxic”. For the same compound, the Activity [28] was “Active”, the Activity [29] was 46.4% and the Activity [30] was 60.2%. It also gave an IC50 [31] of 80 nM, an Activity [32] of 3.73% and an Activity [33] of 42.3%. For the same compound, the Activity [34] was “Active”, the Activity [35] was “Dde” and the Activity [36] was 1.9%. It also gave an Activity [37] of 6.96%, a selectivity ratio [38] of 37.8 and an Activity [39] of 2.68%. For the same compound, the inhibition in vivo at 2 mg/kg [40] was 48.8%.
